The text below walks through data of patent US11242337B2, “Compounds useful for treating gastrointestinal tract disorders” (Ardelyx, Inc., priority 2017, dated 2022).

Structures can show the parent of a compound that is named as a salt.

For assay [1], the target named is T1, NHE3 (Homo sapiens, UniProt P48764).
T1 construct: expressed in transfected cells
T1 sequence (P48764 26-834): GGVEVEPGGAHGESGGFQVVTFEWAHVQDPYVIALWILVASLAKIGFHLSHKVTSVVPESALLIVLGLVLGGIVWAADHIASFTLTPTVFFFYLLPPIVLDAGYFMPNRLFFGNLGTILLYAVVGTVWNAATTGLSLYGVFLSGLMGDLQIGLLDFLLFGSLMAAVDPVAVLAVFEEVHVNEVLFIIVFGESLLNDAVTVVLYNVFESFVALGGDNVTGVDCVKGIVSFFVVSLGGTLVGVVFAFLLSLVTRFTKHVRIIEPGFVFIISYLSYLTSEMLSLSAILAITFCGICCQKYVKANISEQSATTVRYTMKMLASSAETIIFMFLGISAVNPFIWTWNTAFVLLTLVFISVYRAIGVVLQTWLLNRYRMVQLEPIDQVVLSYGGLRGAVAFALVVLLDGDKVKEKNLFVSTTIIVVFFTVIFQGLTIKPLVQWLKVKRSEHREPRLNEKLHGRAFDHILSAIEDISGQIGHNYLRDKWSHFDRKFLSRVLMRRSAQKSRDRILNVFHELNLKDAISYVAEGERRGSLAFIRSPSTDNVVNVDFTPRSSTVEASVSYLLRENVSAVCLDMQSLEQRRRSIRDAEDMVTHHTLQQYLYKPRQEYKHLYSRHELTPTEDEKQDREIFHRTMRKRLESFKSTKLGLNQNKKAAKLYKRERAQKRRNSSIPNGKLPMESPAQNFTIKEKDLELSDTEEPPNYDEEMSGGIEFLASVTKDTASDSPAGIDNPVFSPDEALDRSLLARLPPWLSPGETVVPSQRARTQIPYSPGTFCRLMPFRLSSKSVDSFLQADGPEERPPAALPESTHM
T1 sequence (Q99653 2-195 partner limits assumed): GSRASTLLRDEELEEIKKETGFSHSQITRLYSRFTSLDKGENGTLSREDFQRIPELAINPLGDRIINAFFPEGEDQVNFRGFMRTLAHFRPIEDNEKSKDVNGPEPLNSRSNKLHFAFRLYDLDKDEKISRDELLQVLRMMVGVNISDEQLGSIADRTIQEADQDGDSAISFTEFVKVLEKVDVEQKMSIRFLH
Put plainly: Cell-based assay of NHE-3 activity (pre-incubation inhibition), human. Conditions: human Preincubation. The gist of the method: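 Activity read as initial rate of BCECF fluorescence ratio change per minute (ex 439/505, em 538 nm) following NH4Cl prepulse acid loading. Compound (0–30 μM) present during 10 min Na+-free acidification at room temperature; cells were PS120 fibroblasts stably co-expressing human NHE3 and NHERF2.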

Assay [2] has as its target T1, NHE3. Put plainly: Cell-based assay of NHE-3 activity (persistent inhibition), human. The conditions noted are these: human Persistence, 60 min incubation then washout. In outline: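 Persistent inhibition: compound (0-30 μM, 60 min, RT, NaCl-HEPES pH 7.4) removed before assay. Human NHE3/NHERF2 PS120 cells were then BCECF-loaded during NH4Cl pulse (30 min, 37 °C), acidified in Na+-free buffer, and Na+ added 10 min after washout; antiport measured as initial fluorescence-ratio change per minute.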

With `C[C@@H](COCCOCCNC(=O)NCCCCNC(=O)NCCOCCOC[C@H](C)NS(=O)(=O)c1ccc(O[C@H]2c3cc(Cl)cc(Cl)c3C[C@@H]2N2CCC[C@@H](N)C2)cc1)NS(=O)(=O)c1ccc(O[C@H]2c3cc(Cl)cc(Cl)c3C[C@@H]2N2CCC[C@@H](N)C2)cc1` [Example 96, 1-(2-[2-[(2S)-2-[(4-[[(1S,2S)-2-[(3R)-3-Aminopiperidin-1-yl]-4,6-dichloro-2,3-dihydro-1H-inden-1-yl]oxy]benzene)sulfonamido]propoxy]ethoxy]ethyl)-3-(4-[[(2-[2-[(2S)-2-[(4-[[(1S,2S)-2-[(3R)-3-aminopiperidin-1-yl]-4,6-dichloro-2,3-dihydro-1H-inden-1-yl]oxy]benzene)sulfonamido]propoxy]ethoxy]ethyl)carbamoyl]amino]butyl)urea; hydrochloride], the “% inhibition” value on NHE3 [1] and at NHE3 [2] was “C (>70%)” each time. Also, the IC50 against NHE3 [1] (0-30 μM test compound) and on NHE3 [2] was less than 0.1 µM throughout.
For `C[C@H](COCCOCCNC(=O)NCCCCNC(=O)NCCOCCOC[C@@H](C)NS(=O)(=O)c1ccc(O[C@H]2c3cc(Cl)cc(Cl)c3C[C@@H]2N2CCC[C@@H](N)C2)cc1)NS(=O)(=O)c1ccc(O[C@H]2c3cc(Cl)cc(Cl)c3C[C@@H]2N2CCC[C@@H](N)C2)cc1` [Example 97, 3-(2-[2-[(2R)-2-[(4-[[(1S,2S)-2-[(3R)-3-Aminopiperidin-1-yl]-4,6-dichloro-2,3-dihydro-1H-inden-1-yl]oxy]benzene)sulfonamido]propoxy]ethoxy]ethyl)-1-(4-[[(2-[2-[(2R)-2-[(4-[[(1S,2S)-2-[(3R)-3-aminopiperidin-1-yl]-4,6-dichloro-2,3-dihydro-1H-inden-1-yl]oxy]benzene)sulfonamido]propoxy]ethoxy]ethyl)carbamoyl]amino]butyl)urea], the “% inhibition” value at NHE3 [1] and at NHE3 [2] was “C (>70%)” throughout. Besides, the pIC50 result against NHE3 [1] (0-30 μM test compound) and against NHE3 [2] was “C (NHE3 pIC50 > 7)” each time.
In the case of `CC(C)[C@@H](COCCOCCNC(=O)NCCCCNC(=O)NCCOCCOC[C@@H](NS(=O)(=O)c1ccc(O[C@H]2c3cc(Cl)cc(Cl)c3C[C@@H]2N2CCC[C@@H](N)C2)cc1)C(C)C)NS(=O)(=O)c1ccc(O[C@H]2c3cc(Cl)cc(Cl)c3C[C@@H]2N2CCC[C@@H](N)C2)cc1` [Example 98, 3-(2-[2-[(2S)-2-[(4-[[(1S,2S)-2-[(3R)-3-Aminopiperidin-1-yl]-4,6-dichloro-2,3-dihydro-1H-inden-1-yl]oxy]benzene)sulfonamido]-3-methylbutoxy]ethoxy]ethyl)-1-(4-[[(2-[2-[(2S)-2-[(4-[[(1S,2S)-2-[(3R)-3-aminopiperidin-1-yl]-4,6-dichloro-2,3-dihydro-1H-inden-1-yl]oxy]benzene)sulfonamido]-3-methylbutoxy]ethoxy]ethyl)carbamoyl]amino]butyl)urea dihydrochloride], the “% inhibition” value at NHE3 [1] and at NHE3 [2] was “C (>70%)” each time. In addition, the pIC50 result on NHE3 [1] (0-30 μM test compound) and against NHE3 [2] was “C (NHE3 pIC50 > 7)” each time.
For `CC(C)[C@H](COCCOCCNC(=O)NCCCCNC(=O)NCCOCCOC[C@H](NS(=O)(=O)c1ccc(O[C@H]2c3cc(Cl)cc(Cl)c3C[C@@H]2N2CCC[C@@H](N)C2)cc1)C(C)C)NS(=O)(=O)c1ccc(O[C@H]2c3cc(Cl)cc(Cl)c3C[C@@H]2N2CCC[C@@H](N)C2)cc1` [Example 99, 3-(2-[2-[(2R)-2-[(4-[[(1S,2S)-2-[(3R)-3-Aminopiperidin-1-yl]-4,6-dichloro-2,3-dihydro-1H-inden-1-yl]oxy]benzene)sulfonamido]-3-methylbutoxy]ethoxy]ethyl)-1-(4-[[(2-[2-[(2R)-2-[(4-[[(1S,2S)-2-[(3R)-3-aminopiperidin-1-yl]-4,6-dichloro-2,3-dihydro-1H-inden-1-yl]oxy]benzene)sulfonamido]-3-methylbutoxy]ethoxy]ethyl)carbamoyl]amino]butyl)urea], the “% inhibition” value on NHE3 [1] is given as “C (>70%)”. Moreover, the pIC50 entry on NHE3 [1] (0-30 μM test compound) is recorded as “C (NHE3 pIC50 > 7)”. Also, at NHE3 [2], the “% inhibition” value is listed as “C (>70%)” and the IC50 was 0.1 to 1 µM.
Regarding `CC(C)(COCCOCCNC(=O)NCCCCNC(=O)NCCOCCOCC(C)(C)NS(=O)(=O)c1ccc(O[C@H]2c3cc(Cl)cc(Cl)c3C[C@@H]2N2CCC[C@@H](N)C2)cc1)NS(=O)(=O)c1ccc(O[C@H]2c3cc(Cl)cc(Cl)c3C[C@@H]2N2CCC[C@@H](N)C2)cc1` [Example 100, 1-[2-(2-[2-[(4-[[(1S,2S)-2-[(3R)-3-Aminopiperidin-1-yl]-4,6-dichloro-2,3-dihydro-1H-inden-1 yl]oxy]benzene)sulfonamido]-2-methylpropoxy]ethoxy)ethyl]-3-[4-([[2-(2-[2-[(4-[[(1S,2S)-2-[(3R)-3-aminopiperidin-1-yl]-4,6-dichloro-2,3-dihydro-1H-inden-1-yl]oxy]benzene)sulfonamido]-2-methylpropoxy]ethoxy)ethyl]carbamoyl]amino)butyl]urea; hydrochloride], the “% inhibition” value on NHE3 [1] and on NHE3 [2] was “C (>70%)” in each case. The pIC50 result against NHE3 [1] (0-30 μM test compound) and at NHE3 [2] was “C (NHE3 pIC50 > 7)” in each case.
As to `COc1cc(O[C@H]2c3cc(Cl)cc(Cl)c3C[C@@H]2N2CCC[C@@H](N)C2)ccc1S(=O)(=O)NCCOCCOCCNC(=O)NCCCCNC(=O)NCCOCCOCCNS(=O)(=O)c1ccc(O[C@H]2c3cc(Cl)cc(Cl)c3C[C@@H]2N2CCC[C@@H](N)C2)cc1OC` [Example 101, 1-[2-(2-[2-[(4-[[(1S,2S)-2-[(3R)-3-Aminopiperidin-1-yl]-4,6-dichloro-2,3-dihydro-1H-inden-1-yl]oxy]-2-methoxybenzene)sulfonamido]ethoxy]ethoxy)ethyl]-3-[4-([[2-(2-[2-[(4-[[(1S,2S)-2-[(3R)-3-aminopiperidin-1-yl]-4,6-dichloro-2,3-dihydro-1H-inden-1-yl]oxy]-2-methoxybenzene)sulfonamido]ethoxy]ethoxy)ethyl]carbamoyl]amino)butyl]urea], the “% inhibition” value on NHE3 [1] is on record as “C (>70%)”; at NHE3 [2], “B (40-70%)”. Besides, the pIC50 result against NHE3 [1] (0-30 μM test compound) and at NHE3 [2] was “C (NHE3 pIC50 > 7)” in each case.
Regarding `Cc1cc(O[C@H]2c3cc(Cl)cc(Cl)c3C[C@@H]2N2CCC[C@@H](N)C2)ccc1S(=O)(=O)NCCOCCOCCNC(=O)NCCCCNC(=O)NCCOCCOCCNS(=O)(=O)c1ccc(O[C@H]2c3cc(Cl)cc(Cl)c3C[C@@H]2N2CCC[C@@H](N)C2)cc1C` [Example 102, 3-[2-(2-[2-[(4-[[(1S,2S)-2-[(3R)-3-Aminopiperidin-1-yl]-4,6-dichloro-2,3-dihydro-1H-inden-1-yl]oxy]-2-methylbenzene)sulfonamido]ethoxy]ethoxy)ethyl]-1-[4-([[2-(2-[2-[(4-[[(1S,2S)-2-[(3R)-3-aminopiperidin-1-yl]-4,6-dichloro-2,3-dihydro-1H-inden-1-yl]oxy]-2-methylbenzene)sulfonamido]ethoxy]ethoxy)ethyl]carbamoyl]amino)butyl]urea], the “% inhibition” value on NHE3 [1] and on NHE3 [2] was “C (>70%)” each time. For the same compound, the pIC50 entry at NHE3 [1] (0-30 μM test compound) and at NHE3 [2] was “C (NHE3 pIC50 > 7)” each time.
As to `N[C@@H]1CCCN([C@H]2Cc3c(Cl)cc(Cl)cc3[C@@H]2Oc2ccc(S(=O)(=O)NCCOCCOCCNC(=O)NCCCCNC(=O)NCCOCCOCCNS(=O)(=O)c3ccc(O[C@H]4c5cc(Cl)cc(Cl)c5C[C@@H]4N4CCC[C@@H](N)C4)cc3F)c(F)c2)C1` [Example 103, 1-[2-(2-[2-[(4-[[(1S,2S)-2-[(3R)-3-Aminopiperidin-1-yl]-4,6-dichloro-2,3-dihydro-1H-inden-1-yl]oxy]-2-fluorobenzene)sulfonamido]ethoxy]ethoxy)ethyl]-3-[4-([[2-(2-[2-[(4-[[(1S,2S)-2-[(3R)-3-aminopiperidin-1-yl]-4,6-dichloro-2,3-dihydro-1H-inden-1-yl]oxy]-2-fluorobenzene)sulfonamido]ethoxy]ethoxy)ethyl]carbamoyl]amino)butyl]urea], the “% inhibition” value on NHE3 [1] and on NHE3 [2] was “C (>70%)” in each case. Also, the pIC50 entry on NHE3 [1] (0-30 μM test compound) and against NHE3 [2] was “C (NHE3 pIC50 > 7)” throughout.
